US10995068B2, “Synthetic sphingolipid-like molecules, drugs, methods of their synthesis and methods of treatment” (The Regents of the University of California, priority 2015, dated 2021)

How the values were obtained:
[1] = system: K-RasG12D expressing cells; test: Macropinosome fusion with lysosomes; assay type: cell-based; conditions: dextran
Text: In cells with activated Ras, macropinocytosis might also confer resistance to nutrient transporter down-regulation. However, PI(3,5)P2 is also required for macropinosome degradation. […] Macropinosomes that fail to fuse with lysosomes would not be able to supply nutrients, such as amino acids. Thus, by disrupting PIKfyve localization, sphingolipid-like compounds limit access to lysosome-derived nutrients at the same time it down-regulates transporters for amino acids and glucose.
Light Microscopy: Brightfield and epifluorescence microscopy were conducted using a Nikon TE2000-S fluorescence microscope; confocal microscopy was performed on a Zeiss LSM780 confocal microscope or Nikon Eclipse Ti spinning disk confocal microscope. […] Co-localization was determined using JACoP plugin in ImageJ software. Macropinocytosis was measured after 16 h incubation in serum-free DMEM. p53−/−; LSL-K-RasG12D MEFs before (LSL) or after (KRasG12D) introduction of Cre were serum starved for 16 h and then treated with macropinocytosis inhibitor 5-(N-ethyl-N-isopropyl) amiloride (EIPA, 75 μM) for 1 h or SH-BC-893 for 6 h. Oregon Green dextran (Life Technologies, cat #D7173) (1 mg/mL) and Lysotracker Red (Life Technologies, cat #L-7525) (1:2,000 dilution) were added for 30 min and live cells were evaluated on the spinning disc confocal microscope. […]

[2] = system: normal human peripheral blood mononuclear cells (PBMC); test: Colony formation assay, PBMC; assay type: cell-based
Protocol: The difference in sensitivity stems from the inability of neoplastic cells to adapt to decreases of metabolism.
Cell analysis: Viability and 4F2hc expression are determined by vital dye exclusion and flow cytometry. Oxygen consumption is measured with an XF24 Extracellular Flux Analyzer (Seahorse Bioscience); values are normalized to total protein. Confocal microscopy is performed on either a Zeiss LSM780 or a Nikon Eclipse Ti; vacuolation was monitored using a Nikon TE2000-S equipped with DIC filters. Anchorage-independent growth of SW620 cells is measured in DMEM-10 containing 0.35% agarose with a 0.5% agarose bottom layer. PBMNCs are obtained from the normal blood donor program run by the CTSA-supported Institute for Clinical and Translational Science at UCI under IRB protocols 2015-1883 (Edinger) and 2001-2058 (ICTS). […] Plates were incubated at 37° C. in a humidified atmosphere containing 5% CO2 and colonies were counted after 12 days.
Cell culture and reagents. […] Cell viability was measured by vital dye exclusion using either propidium iodide or DAPI at 1 μg/ml. Analysis of cell surface 4F2hc levels with PE-conjugated anti-CD98 was restricted to viable cells as determined by DAPI exclusion. Anchorage-independent growth of SW620 cells was measured in DMEM-10 containing 0.35% low melt agarose with a 0.5% agarose bottom layer. […]

With `CCCCCCCCc1ccc([C@H]2CCN[C@@H]2CO)cc1.Cl` [Compound 5, (2S,3R)-2-(hydroxymethyl)-3-(4-octylphenyl)Pyrrolidinium chloride] the “macropinosome fusion with lysosomes” value [1] was “dramatically reduced macropinosome fusion with lysosomes” and the “sensitivity in colony formation assays” value [2] was “resistant”.
